Data published in patent US20200138031A1, “MIXTURES OF SABADILLA ALKALOIDS AND N-OCTYL BICYCLOHEPTENE DICARBOXIMIDE AND USES THEREOF” (priority 2016, published 2020).

How the values were obtained:
Format in all cases: in vivo
[1] = system: Yellow fever mosquito (Aedes aegypti); experiment: whole plant or invertebrate; conditions: for % Mortality: Hour 4; for mortality at 0.05 % strength / mortality at 0.5 % strength / mortality at 1 % strength / mortality: Aedes aegypti; for mortality at 1 % strength: 1.0 % w/w
Experimental: (§1) A direct spray bioassay for a mixture of sabadilla and N-octyl bycloheptene dicarboximide (MGK264) against Yellow fever mosquito (Aedes aegypti) was conducted on Sep. 20-27, 2019. A water-based formulation containing Sabadilla alone, MGK264 alone, or these combinations were prepared using test products and distilled water. Ten adults (females) of the mosquito were put into 650 mL clean cup (100 mm diameter×70 mm height) laid a filter paper (106 mm diameter) at the bottom, and the cup was covered with 1 mm mesh nylon net. The cup was set on the bottom of CSMA chamber (460 mm×460 mm×700 mm height), and 0.5 mL of water (control) or water-based formulation of test products was sprayed from the distance of 30 cm toward the cup at the air pressure of 0.039 MPa (0.4 kg/cm2). […] The test was repeated 4 times and calculated mortality (%) at each observation point.
(§2) To determine if the mixtures provided unexpected results, the observed combined efficacy (“OCE”) was divided by the expected combined efficacy (“ECE”) to give an OCE/ECE ratio wherein the expected ECE is calculated by the Abbott method: […]
(§3) wherein ECE is the expected combined efficacy and in which A and B are the efficacy provided by the single active ingredients. If the ratio between the OCE of the mixture and the ECE of the mixture is greater than 1, then greater than expected interactions are present in the mixture. (Gisi, The American Phytopathological Society, 86:11, 1273-1279, 1996).

[2] = system: house fly (Musca domestica); experiment: direct spray bioassay against house fly; conditions: for % Mortality: Hour 4; for mortality at 0.025 % strength / mortality at 0.1 % strength / mortality at 0.25 % strength / mortality at 1 % strength: Musca domestica
Experimental: as §2, §3
as §1, with “sabadilla N-octyl” for “sabadilla”, “MGK264” for “N-octyl bycloheptene dicarboximide (MGK264)”, “house fly (Musca domestica)” for “Yellow fever mosquito (Aedes aegypti)”, “Mar. 6-13,” for “Sep. 20-27,”, “house fly” for “mosquito”

[3] = system: German cockroach (Blattella germanica); experiment: direct spray bioassay against German cockroach; conditions: for % Mortality: Hour 4; for mortality at 0.05 % strength / mortality at 0.5 % strength / mortality at 5 % strength: Blattella germanica
Experimental: as §2, §3
(§4) A direct spray bioassay for a mixture of sabadilla and MGK264 against German cockroach (Blattella germanica) was conducted on Feb. 13-20, 2019. A water-based formulation containing Sabadilla alone, MGK264 alone, or these combinations were prepared using test products and distilled water. Ten adults (1:1 sex ratio) of the cockroach were put into 200 mL clean cup (80 mm diameter×45 mm height) laid a filter paper (82 mm diameter) at the bottom. The cup was set on the bottom of CSMA chamber (460 mm×460 mm×700 mm height), and 1.5 mL of water (control) or water-based formulation of test products was sprayed from the distance of 60 cm toward the cup at the air pressure of 0.041 MPa (0.42 kg/cm2). […] The test was repeated 4 times and calculated mortality (%) at each observation point.

[4] = system: bed bug (Cimex lectularius); experiment: direct spray bioassay against bed bug; conditions: for % Mortality: Hour 4; for mortality at 0.05 % strength / mortality at 0.5 % strength / mortality at 5 % strength: Cimex lectularius
Experimental: as §2, §3
as §4, with “bed bug (Cimex lectularius)” for “against German cockroach (Blattella germanica)”, “February 27 to Mar. 6,” for “Feb. 13-20,”, “bed bug (Cimex lectularius)” for “cockroach”, “0.5” for “1.5”

CCCCC(CC)CN1C(=O)C2C3C=CC(C3)C2C1=O (centres unmarked) [MGK264, N-octyl bicycloheptene dicarboximide]
10%: mortality at 1 % strength ([1]; 24 h, Day 1) | mortality at 0.1 % strength ([2]; 48 h, 0.1 % w/w, Day 2) | mortality at 0.25 % strength ([2]; 48 h, 0.25 % w/w, Day 2)
53.7%: mortality at 0.025 % strength ([2]; 144 h, 0.025 % w/w, Day 6)
7.3%: mortality at 0.025 % strength ([2]; 48 h, 0.025 % w/w, Day 2)
7.5%: mortality at 1 % strength ([1]; Hour 1)
42.5%: mortality at 0.25 % strength ([2]; 120 h, 0.25 % w/w, Day 5)
60%: mortality at 0.25 % strength ([2]; 168 h, 0.25 % w/w, Day 7)
37.5%: mortality at 0.1 % strength ([2]; 120 h, 0.1 % w/w, Day 5) | mortality at 0.1 % strength ([2]; 144 h, 0.1 % w/w, Day 6)
0%: mortality at 0.05 % strength ([1]; 24 h, 0.05 % w/w, Day 1) | mortality at 0.5 % strength ([1]; 24 h, 0.5 % w/w, Day 1) | mortality ([1]; 24 h, Day 1) | mortality at 0.5 % strength ([1]; 48 h, 0.5 % w/w, Day 2) | mortality at 0.05 % strength ([1]; 120 h, 0.05 % w/w, Day 5) | mortality at 0.5 % strength ([1]; 120 h, 0.5 % w/w, Day 5) | mortality at 0.5 % strength ([1]; 144 h, 0.5 % w/w, Day 6) | mortality at 0.05 % strength ([1]; 168 h, 0.05 % w/w, Day 7) | mortality at 0.5 % strength ([1]; 168 h, 0.5 % w/w, Day 7) | mortality at 0.05 % strength ([1]; 0.05 % w/w, Hour 1) | mortality at 0.5 % strength ([1]; 0.5 % w/w, Hour 1) | mortality ([1]; Hour 1) | mortality at 0.025 % strength ([2]; 24 h, 0.025 % w/w, Day 1) | mortality at 0.1 % strength ([2]; 24 h, 0.1 % w/w, Day 1) | mortality at 0.25 % strength ([2]; 24 h, 0.25 % w/w, Day 1) | mortality at 0.025 % strength ([2]; 0.025 % w/w, Hour 1) | mortality at 0.1 % strength ([2]; 0.1 % w/w, Hour 1) | mortality at 0.25 % strength ([2]; 0.25 % w/w, Hour 1) | mortality at 1 % strength ([2]; 1.0 % w/w, Hour 1) | mortality at 0.05 % strength ([3]; 24 h, 0.05 % w/w, Day 1) | mortality at 0.5 % strength ([3]; 24 h, 0.5 % w/w, Day 1) | mortality at 5 % strength ([3]; 24 h, 5.0 % w/w, Day 1) | mortality at 0.05 % strength ([3]; 48 h, 0.05 % w/w, Day 2) | mortality at 0.5 % strength ([3]; 48 h, 0.5 % w/w, Day 2) | mortality at 5 % strength ([3]; 48 h, 5.0 % w/w, Day 2) | mortality at 0.5 % strength ([3]; 120 h, 0.5 % w/w, Day 5) | mortality at 5 % strength ([3]; 120 h, 5.0 % w/w, Day 5) | mortality at 0.5 % strength ([3]; 144 h, 0.5 % w/w, Day 6) | mortality at 5 % strength ([3]; 144 h, 5.0 % w/w, Day 6) | mortality at 0.5 % strength ([3]; 168 h, 0.5 % w/w, Day 7) | mortality at 5 % strength ([3]; 168 h, 5.0 % w/w, Day 7) | mortality at 0.05 % strength ([3]; 0.05 % w/w, Hour 1) | mortality at 0.5 % strength ([3]; 0.5 % w/w, Hour 1) | mortality at 5 % strength ([3]; 5.0 % w/w, Hour 1) | mortality at 0.05 % strength ([4]; 24 h, 0.05 % w/w, Day 1) | mortality at 0.5 % strength ([4]; 24 h, 0.5 % w/w, Day 1) | mortality at 5 % strength ([4]; 24 h, 5.0 % w/w, Day 1) | mortality at 0.05 % strength ([4]; 48 h, 0.05 % w/w, Day 2) | mortality at 0.5 % strength ([4]; 48 h, 0.5 % w/w, Day 2) | mortality at 5 % strength ([4]; 48 h, 5.0 % w/w, Day 2) | mortality at 0.05 % strength ([4]; 120 h, 0.05 % w/w, Day 5) | mortality at 0.5 % strength ([4]; 120 h, 0.5 % w/w, Day 5) | mortality at 5 % strength ([4]; 120 h, 5.0 % w/w, Day 5) | mortality at 0.05 % strength ([4]; 144 h, 0.05 % w/w, Day 6) | mortality at 0.5 % strength ([4]; 144 h, 0.5 % w/w, Day 6) | mortality at 5 % strength ([4]; 144 h, 5.0 % w/w, Day 6) | mortality at 0.05 % strength ([4]; 168 h, 0.05 % w/w, Day 7) | mortality at 0.5 % strength ([4]; 168 h, 0.5 % w/w, Day 7) | mortality at 5 % strength ([4]; 168 h, 5.0 % w/w, Day 7) | mortality at 0.05 % strength ([4]; 0.05 % w/w, Hour 1) | mortality at 0.5 % strength ([4]; 0.5 % w/w, Hour 1) | mortality at 5 % strength ([4]; 5.0 % w/w, Hour 1)
72.5%: mortality at 1 % strength ([2]; 120 h, 1.0 % w/w, Day 5)
80%: mortality at 1 % strength ([2]; 144 h, 1.0 % w/w, Day 6)
2.5%: mortality ([1]; 168 h, Day 7) | mortality at 1 % strength ([2]; 24 h, 1.0 % w/w, Day 1)
50%: mortality at 0.25 % strength ([2]; 144 h, 0.25 % w/w, Day 6)
12.5%: mortality at 1 % strength ([1]; 48 h, Day 2) | mortality at 1 % strength ([1]; 120 h, Day 5) | mortality at 1 % strength ([1]; 144 h, Day 6) | mortality at 1 % strength ([1]; 168 h, Day 7) | mortality at 1 % strength ([2]; 48 h, 1.0 % w/w, Day 2)
87.5%: mortality at 1 % strength ([2]; 168 h, 1.0 % w/w, Day 7)
2.6%: mortality at 0.05 % strength ([3]; 120 h, 0.05 % w/w, Day 5) | mortality at 0.05 % strength ([3]; 144 h, 0.05 % w/w, Day 6) | mortality at 0.05 % strength ([3]; 168 h, 0.05 % w/w, Day 7)
0.0%: % Mortality ([1]; 0.05 % w/w) | % Mortality ([1]; 0.1 % w/w) | % Mortality ([1]; 0.5 % w/w) | % Mortality ([2]; 0.025 % w/w) | % Mortality ([2]; 0.1 % w/w) | % Mortality ([2]; 0.25 % w/w) | % Mortality ([2]; 1.0 % w/w) | % Mortality ([3]; 0.05 % w/w) | % Mortality ([3]; 0.5 % w/w) | % Mortality ([3]; 5.0 % w/w) | % Mortality ([4]; 0.05 % w/w) | % Mortality ([4]; 0.5 % w/w) | % Mortality ([4]; 5.0 % w/w)
55%: mortality at 0.1 % strength ([2]; 168 h, 0.1 % w/w, Day 7)
34.1%: mortality at 0.025 % strength ([2]; 120 h, 0.025 % w/w, Day 5)
68.3%: mortality at 0.025 % strength ([2]; 168 h, 0.025 % w/w, Day 7)
